Assay results: paper PMC10949930 (ACS Chemical Biology, 2024)
Values after ≈ are worked out from the molar mass of the structure shown.

Experiments:
B. subtilis 168 = test: MIC, broth microdilution; type: cell-based; conditions: Bacillus subtilis, 168, 20 h, read-out: MIC B. subtilis 168
S. aureus NCTC8325 [1] = test: MIC, broth microdilution; type: cell-based; conditions: Staphylococcus aureus, NCTC8325, 20 h, read-out: MIC S. aureus NCTC8325
S. aureus NCTC8325 cells = test: Protonophore assay, intracellular pH by BCECF AM; type: cell-based, Staphylococcus aureus; conditions: 1× MIC, 10 min; for intracellular pH after compound addition: dropped from pH 7.8
S. aureus NCTC8325 [2] = test: Pore-forming assay, SYTO9/propidium iodide costaining; type: cell-based, Staphylococcus aureus; conditions: 4× MIC; nisin 100 μg mL^–1; 35 min
B. subtilis 168 cells = test: Membrane dye FM 5–95 labeling after compound exposure; type: cell-based, Bacillus subtilis; conditions: B. subtilis 168, 1× MIC, 15 min; CCCP 100 μM
[3] = system: GFP-MinD in B. subtilis cells; test: GFP-MinD localization; type: cell-based, Bacillus subtilis; conditions: 10 min, 1× MIC, CCCP 100 μM
S. aureus = conditions: atropisomers compared; cited from earlier work

## Oc1c(Cl)cc(Cl)cc1-c1[nH]c(Cl)c(Cl)c1Cl [compound 3, pentachloropseudilin]
B. subtilis 168
  MIC: 4 ng/mL (≈ 0.0121 µM)
S. aureus NCTC8325 [1]
  MIC: 4 ng/mL (≈ 0.0121 µM)
S. aureus NCTC8325 cells
  drop of intracellular pH (Δ): 0.2 pH units
  intracellular pH after compound addition: 7.6
S. aureus NCTC8325 [2]
  membrane integrity / pore formation (SYTO9/propidium iodide): only green fluorescence

## nisin [reference compound]
S. aureus NCTC8325 [2]
  membrane integrity / pore formation (SYTO9/propidium iodide): clear red fluorescence indicative of pore formation

## N#CC(C#N)=NNc1cccc(Cl)c1 [CCCP, carbonyl cyanide m-chlorophenyl hydrazone]
B. subtilis 168 cells
  localization of membrane dye FM 5–95 after treatment: aggregated, inhomogeneous, “spotty” localization
[3]
  GFP-MinD localization after treatment: diffuse and spotty

## O=C(c1ccccc1O)c1[nH]c(Cl)c(Cl)c1-n1c(C(=O)c2ccccc2O)cc(Cl)c1Cl (atropisomer, axis not shown; (M)) [(−)-(M)-MarA]
S. aureus
  potency against S. aureus: equal potency

## Oc1c(Br)cc(Br)cc1-c1[nH]c(Br)c(Br)c1Br [compound 2, pentabromopseudilin]
B. subtilis 168
  MIC: 16 ng/mL (≈ 0.0289 µM)
S. aureus NCTC8325 [1]
  MIC: 16 ng/mL (≈ 0.0289 µM)
S. aureus NCTC8325 cells
  drop of intracellular pH (Δ): 0.2 pH units
  intracellular pH after compound addition: 7.6
